Experimental data from US9145415B2, “Nitrogen-containing heterocyclic compound or salt thereof” (FUJIFILM Corporation, priority 2012, dated 2015).
Read-outs that look alike come from different tables or passages of the source.

Experiments:
[1] = biological target: T1, human FLT3 protein (FLT3 (WT)) (Homo sapiens, UniProt P36888); experiment: FLT3 inhibition test (FLT3 enzyme inhibition, time-resolved fluorescence of substrate peptide phosphorylation); type: biochemical; conditions: read-out: FLT3 (WT) enzyme inhibition activity
T1 construct: human FLT3 protein (intracellular region, 564 to 993 aa); GST; purchased Carna Biosciences; host or cells: baculovirus expression system
T1 sequence (P36888 564-993): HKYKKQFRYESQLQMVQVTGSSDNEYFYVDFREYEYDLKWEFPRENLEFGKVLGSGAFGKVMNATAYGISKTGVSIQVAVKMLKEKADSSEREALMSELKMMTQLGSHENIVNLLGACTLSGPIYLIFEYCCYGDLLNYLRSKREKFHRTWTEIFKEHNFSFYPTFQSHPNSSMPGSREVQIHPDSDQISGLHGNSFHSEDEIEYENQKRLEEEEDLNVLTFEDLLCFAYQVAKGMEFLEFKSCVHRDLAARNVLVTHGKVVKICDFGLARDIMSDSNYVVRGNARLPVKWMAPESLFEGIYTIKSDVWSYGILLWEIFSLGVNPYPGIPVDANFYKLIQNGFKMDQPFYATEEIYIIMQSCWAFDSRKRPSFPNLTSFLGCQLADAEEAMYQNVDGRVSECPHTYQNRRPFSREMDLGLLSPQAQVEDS
How it was run: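 Substrate peptide phosphorylation detected by time-resolved fluorescence after a 30 min kinase reaction at 25° C with 50 μM ATP (final). Beforehand, compound and FLT3 (WT, 1.2 μg) stood 15 min at 25° C in HEPES buffer pH 7.5 containing MgCl2, NaCl, BSA and DTT.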

Molm-13 cells = experiment: Leukemia cell proliferation inhibition test (ATPlite), Molm-13; type: cell-based; conditions: Homo sapiens, read-out: MOLM13 cell proliferation inhibition effect
How it was run: (§1)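 Molm-13 or MV4-11 cells in RPMI with 10% FBS and pen/strep, seeded at 10,000 cells per well, were exposed to serially diluted compound for 72 hours at 37° C, 5% CO2. Total cellular ATP was read by luciferase luminescence. GI50 came from sigmoid fits against the 0.1% DMSO control, in duplicate.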

MV4-11 cells = experiment: Leukemia cell proliferation inhibition test (ATPlite), MV4-11; type: cell-based; conditions: Homo sapiens, read-out: MV4-11 cell proliferation inhibition effect
How it was run: as §1

[2] = GST-fused human FLT3 (564 to 993 aa), ATP 50 μM
[3] = MOLM-13, 72 h, Molm-13, 72 hours culture, ATPlite, GI50 per method
[4] = MV4-11, 72 h, MV4-11, 72 hours culture, ATPlite, GI50 per method

SMILES	IC50 [1, 2] [nM]	IC50 (Molm-13 cells; [3]) [nM]	IC50 (MV4-11 cells; [4]) [nM]	IC50 ([1]; FLT3 (WT)) [nM]	IC50 (Molm-13 cells; MOLM-13, MOLM13 cell) [nM]	IC50 (MV4-11 cells; MV4-11, MV4-11 cell) [nM]
C[C@@H](C(=O)NCCCC#Cc1cnc(Nc2ccc(C#N)cc2)nc1NCC1CC1)N(C)C(=O)/C=C/CN(C)C [Compound 21-12]	< 10	< 10	< 10			
COCCCNc1nc(Nc2ccnc(F)c2)ncc1C#CCCCNC(=O)[C@H](C)N(C)C(=O)/C=C/CN(C)C [Compound 9-16]	< 10	< 10	< 10			
CCCNc1nc(Nc2ccc(C#N)cc2)ncc1C#CCCCNC(=O)[C@@H]1C[C@@H](F)CN1C(=O)/C=C/CN(C)C [Compound 7-48]	< 10	< 10	< 10			
C=CC(=O)NCC(=O)Nc1cccc(NC(=O)c2cnc(Nc3ccc(C#N)cc3)nc2NCCC)c1 [Compound 6-2, N-(3-(2-(acrylylamido)acetamido)phenyl)-2-((4-cyanophenyl)amino)-4-(propylamino)pyrimidine-5-carboxamide]	10 to 100	100 to 1000	10 to 100			
CCNc1nc(Nc2ccc(C#N)cc2)ncc1C#CCCCNC(=O)[C@H](C)N(C)C(=O)/C=C/CN(C)C [Compound 10-46]	< 10	< 10	< 10			
CCCNc1nc(Nc2ccc(C#N)cc2)ncc1C#CCCCNC(=O)[C@@H]1C[C@H](OC)CN1C(=O)/C=C/CN(C)C [Compound 7-61]	< 10	< 10	< 10			
C=CC(=O)NCCOc1cccc(NC(=O)c2cnc(NCCc3ccncc3)nc2NCCC)c1 [Compound 2-20]	< 10	10 to 100	10 to 100			
CCNc1nc(Nc2ccc3cnn(C)c3c2)ncc1C#CCCCNC(=O)[C@H](C)N(C)C(=O)/C=C/CN(C)C [Compound 10-57]	< 10	< 10	< 10			
CCCNc1nc(NCC)ncc1C#CCCCNC(=O)[C@H](C)N(C)C(=O)/C=C/CN(C)C [Compound 11-3]	10 to 100	100 to 1000	100 to 1000			
CCCNc1nc(Nc2ccc(C(N)=O)cc2)ncc1C(=O)NCCCNc1ncccc1NC(=O)/C=C/CN(C)C [Compound 3-29]	< 10	10 to 100	10 to 100			
CCCNc1nc(Nc2cccc(F)c2)ncc1C#CCCCNC(=O)[C@H](C)N(C)C(=O)/C=C/CN(C)C [Compound 7-1, (S,E)-4-(dimethylamino)-N-(1-((5-(2-((3-fluorophenyl)amino)-4-(propylamino)pyrimidin-5-yl)-4-pentyn-1-yl)amino)-1-oxopropan-2-yl)-N-methyl-2-butenamide]	< 10	< 10	< 10			
CCCNc1nc(Nc2cccc(-n3cccn3)c2)ncc1C#CCCCNC(=O)[C@H](C)N(C)C(=O)/C=C/CN(C)C [Compound 22-18]				< 10	< 10	< 10
CCCNc1nc(Nc2ccc(C(N)=O)cc2)ncc1C(=O)NC1CCCC(NC(=O)CNC(=O)/C=C/CN(C)C)C1 (stereo not drawn) [Compound 3-3]	< 10	10 to 100	10 to 100			
CC(C)Oc1nc(Nc2cccc(F)c2)ncc1C#C[C@@H]1CCC[C@H](NC(=O)[C@H](C)N(C)C(=O)/C=C/CN(C)C)C1 [Compound 21-21]	< 10	< 10	< 10			
CCCNc1nc(Nc2ccc(C#N)cc2)ncc1C#CCCCNC(=O)CN(C(=O)/C=C/CN(C)C)C(C)C [Compound 7-40]	< 10	< 10	< 10			
CCCNc1nc(Nc2ccc(C#N)cc2)ncc1C#C[C@H]1CCC[C@@H](NC(=O)[C@H](C)N(C)C(=O)/C=C/CN(C)C)C1 [Compound 13-3]	< 10	10 to 100	< 10			
CCCNc1nc(Nc2ccc(C#N)cc2)nc(C)c1C#CCCCNC(=O)[C@H](C)N(C)C(=O)/C=C/CN(C)C [Compound 19-1, (S,E)-N-(1-((5-(2-((4-cyanophenyl)amino)-4-methyl-6-(propylamino)pyrimidin-5-yl)-4-pentyn-1-yl)amino)-1-oxopropan-2-yl)-4-(dimethylamino)-N-methyl-2-butenamide]	< 10	100 to 1000	100 to 1000			
CCCNc1nc(Nc2ccc(C(F)(F)F)cc2)ncc1C#CCCCNC(=O)[C@H](C)N(C)C(=O)/C=C/CN(C)C [Compound 12-5]	< 10	10 to 100	10 to 100			
CCCNc1nc(Nc2ccc(C(N)=O)cc2)ncc1-c1cccc(CCNC(=O)CNC(=O)/C=C/CN(C)C)c1 [Compound 16-1, (E)-4-((5-(3-(2-(2-(4-(dimethylamino)-2-butenamido)actamido)ethyl)phenyl)-4-(propylamino)pyrimidin-2-yl)amino)benzamide]	< 10	100 to 1000	10 to 100			
CNc1nc(Nc2ccc(C#N)cc2)ncc1C#C[C@@H]1CCC[C@H](NC(=O)[C@H](C)N(C)C(=O)/C=C/CN(C)C)C1 [Compound 15-5, (E)-N—((S)-1-(((1S,3R)-3-((2-((4-Cyanophenyl)amino)-4-(methylamino)pyrimidin-5-yl)ethynyl)cyclohexyl)amino)-1-oxopropan-2-yl)-4-(dimethylamino)-N-methyl-2-butenamide]	< 10	< 10	< 10			
CCCNc1nc(Nc2ccc(C(N)=O)cc2)ncc1C(=O)Nc1cccc(NC2CCCN(C(=O)/C=C/CN(C)C)C2)c1 (stereo not drawn) [Compound 3-19]	< 10	100 to 1000	10 to 100			
CCCNc1nc(Nc2ccc(C#N)cc2)ncc1C#CC(C)(C)CCNC(=O)[C@H](C)N(C)C(=O)/C=C/CN(C)C [Compound 9-26]	< 10	< 10	< 10			

Other lines, results leading:

IC50 [1, 2] [nM]	IC50 (Molm-13 cells; [3]) [nM]	IC50 (MV4-11 cells; [4]) [nM]	IC50 ([1]; FLT3 (WT)) [nM]	IC50 (Molm-13 cells; MOLM-13, MOLM13 cell) [nM]	IC50 (MV4-11 cells; MV4-11, MV4-11 cell) [nM]	SMILES
< 10	10 to 100	< 10				CCCN(C)c1nc(Nc2ccc(C(=O)NC3CC3)cc2)ncc1C#CCCCNC(=O)[C@H](C)N(C)C(=O)/C=C/CN(C)C [Compound 9-8]
< 10	10 to 100	10 to 100				CCCNc1nc(Nc2ccc(C#N)cc2)ncc1C#Cc1cccc(NC(=O)[C@H](C)N(C)C(=O)/C=C/CN(C)C)n1 [Compound 8-19]
< 10	< 10	< 10				CCCNc1nc(Nc2cccc(F)c2)ncc1C#C[C@H]1C[C@@H](NC(=O)[C@H](C)N(C)C(=O)/C=C/CN(C)C)C1 [Compound 13-8, (E)-4-(Dimethylamino)-N—((S)-1-(((1S,3R)-3-((2-((3-fluorophenyl)amino)-4-(propylamino)pyrimidin-5-yl)ethynyl)cyclobutyl)amino)-1-oxopropan-2-yl)-N-methyl-2-butenamide]
< 10	< 10	< 10				CN(C)C/C=C/C(=O)N1CCC[C@H]1C(=O)N[C@H]1C[C@@H](C#Cc2cnc(Nc3ccc(C#N)cc3)nc2NC2CC2)C1 [Compound 15-12]
< 10	< 10	< 10				C[C@@H](C(=O)NCCCC#Cc1cnc(Nc2cccc(F)c2)nc1NCC1CCOCC1)N(C)C(=O)/C=C/CN(C)C [Compound 10-7]
< 10	10 to 100	< 10				CCCNc1nc(Nc2cccc(F)c2)ncc1C#Cc1cc(NC(=O)[C@H](C)N(C)C(=O)/C=C/CN(C)C)ccc1F [Compound 8-7]
< 10	10 to 100	10 to 100				C=CC(=O)NCC(=O)Nc1cc(Cl)cc(NC(=O)c2cnc(NCCc3ccncc3)nc2NCCC)c1 [Compound 2-5]
< 10	< 10	< 10				CCCNc1nc(Nc2ccc(C#N)cc2)ncc1C#C[C@H]1CC[C@H](NC(=O)[C@H](C)N(C)C(=O)/C=C/CN(C)C)C1 [Compound 13-12]
< 10	< 10	< 10				CCCNc1nc(Nc2ccc(C#N)cc2)ncc1C#CCCCNC(C)(C)CN(C)C(=O)/C=C/CN(C)C [Compound 8-11]
			10 to 100	10 to 100	100 to 1000	CCCNc1nc(Nc2ccc3nc(C)ccc3c2)ncc1C#CCCCNC(=O)[C@H](C)N(C)C(=O)/C=C/CN(C)C [Compound 22-5]
< 10	< 10	< 10				C[C@@H](C(=O)NCCCC#Cc1cnc(Nc2cccc(F)c2)nc1NCCCF)N(C)C(=O)/C=C/CN(C)C [Compound 7-31]
< 10	100 to 1000	10 to 100				C=CC(=O)N(C)CC(=O)NCCCNC(=O)c1cnc(NC(=O)Nc2ccncc2)nc1NCCC [Compound 6-12]
